Assays:
Assay type in all cases: in vivo
[1] = tested on: human ovarian cancer cell line OVCAR-3 xenografts; assay: OVCAR-3 xenograft growth inhibition in nude mice
Procedure: (§1) All the procedures related to animal handling, care, and the treatment in the study were performed following guidelines approved by an Institutional Animal Care and Use Committee (IACUC) of Crown Bioscience, Inc. (Santa Clara, Calif., USA, a contract research organization we hired) based on the guidance of the Association for Assessment and Accreditation of Laboratory Animal Care (AAALAC). Animals were checked for any effects of tumor growth and drug treatment on normal behavior such as mobility, food and water consumption, body weight gain/loss (gross body weights were measured twice weekly), eye/hair matting, and any other abnormal effect. Death and observed clinical signs were recorded on the basis of the number of animals within each group. Individual animals with a tumor volume exceeding 3,000 mm^3 or animals of a group with a mean tumor volume exceeding 2,000 mm^3 were euthanized. In addition, animals showing signs of severe distress and/or pain, dropping body weight more than 20% from that at the start of treatment, or losing the capability of accessing adequate food or water were humanely sacrificed.
(§2) Each mouse was inoculated subcutaneously at the right flank with the LNCaP cells (1×10^7) in 0.1 ml of PBS for tumor development. When a mean tumor volume reached around 150 mm^3, the tumor-bearing mice were divided into homogeneous blocks based on their tumor volumes followed by a randomization of mice in each block into treatment groups (thus minimizing variations in tumor response to treatments due to the differential in initial mean tumor volumes). Each treatment group was consisted of 8 tumor-bearing mice. Vehicle (DMSO) or ITE in the vehicle at specified doses were administered to the mice by either i.p. (intraperitoneal) or p.o. (oral) injection once or twice daily for 28 continuous days as indicated.
(§3) Tumor volume was measured twice weekly in two dimensions using a caliper and the volume was calculated with a formula of: V=0.5 a×b^2, where a and b are the long and short diameter (in mm) of a tumor, respectively. The tumor volume was then used for calculations of both TGI (Tumor Growth Inhibition) and TGD (Tumor Growth Delay). The TGI was determined by: TGI=ΔT/ΔC×100%, where ΔT was a difference between the mean tumor volume at a specified day of observation and that at the day treatment starts (day 1) for a drug treated group whereas ΔC was the same difference measured for the control group. The TGD was calculated as: TGD=T−C, where T was the time (in days) required for tumors in a drug treated group to reach a predetermined mean tumor volume and C the time (in days) in the control group to reach the same volume. A tumor weight was derived by equating 1,000 mm^3 in volume to 1,000 mg in weight. A net body weight was then derived by subtracting a tumor weight from a corresponding gross body weight with the tumor.
(§4) Summary statistics, including mean and the standard error of the mean (SEM), are provided for the tumor volume of each group at each time point. Statistical analysis of difference in tumor volume among groups was conducted on a data set either at the best therapeutic time point or at the final dosing day as indicated. The tumor volume data were log-transformed and evaluated using a one-way ANOVA followed by Tukey's test when significance was observed. All data were analyzed using SPSS 16.0 and p<0.05 was considered to be statistically significant.
(§5) The culture and inoculation of human prostate cancer cell line LNCaP were as described in Example 1. The manipulation for human liver cancer cell line HepG2 (ATCC) was similar as that for LNCaP except that DMEM (instead of RPMI-1640) medium was used, the L-glutamine was not used, and 2×10^6 cells were used for inoculation into female nude mice. The handling of human ovarian cancer cell line OVCAR-3 (ATCC) was the same as that of LNCaP except that the DMEM medium was used and 5×10^6 cells were used for inoculation into female nude mice. […]

[2] = tested on: human prostate cancer cell line LNCaP xenografts; assay: LNCaP xenograft growth inhibition in nude mice; conditions: 20 mg/kg b.w. i.p. once daily
Procedure: as §1
The human prostate cancer cell line LNCaP (ATCC, American Type Culture Collection, Manassas, Va., USA) were maintained in vitro as monolayer culture in RPMI-1640 medium supplemented with 10% fetal bovine serum (FBS), 100 U/ml penicillin, 100 μg/ml streptomycin, and 2 mM L-glutamine at 37° C. in an atmosphere of 5% CO2 in air. The tumor cells were routinely subcultured twice a week. The cells growing in an exponential phase were harvested and counted for tumor inoculation.
as §2, §3, §4

[3] = tested on: human liver cancer cell line HepG2 xenografts; assay: HepG2 xenograft growth inhibition in nude mice
Procedure: as §1, §2, §3, §4, §5

[4] = 80 mg/kg i.p. once daily, at a tumor volume of 800 mm^3
[5] = female, nude, mouse, in vivo, 32 day

CCC(=O)c1csc(C(=O)c2c[nH]c3ccccc23)n1 [ITK]
net body weight loss ([1]; 80 mg/kg i.p. once daily): no obvious net body weight loss
TGD (Tumor Growth Delay) [1, 4]: 13 days
TGI (Tumor Growth Inhibition) ([1]; 80 mg/kg i.p. once daily, day 33, TGI=ΔT/ΔC×100%): 46%
mice died [1, 5]: 1 out of 8
TGD (Tumor Growth Delay) ([2]; at a tumor volume of 1,000 mm^3): 16 days
TGI (Tumor Growth Inhibition) ([2]; day 28, TGI=ΔT/ΔC×100%): 51%
net body weight loss ([3]; 80 mg/kg i.p. once daily): no obvious net body weight loss
TGD (Tumor Growth Delay) [3, 4]: 26 days
TGI (Tumor Growth Inhibition) ([3]; 80 mg/kg i.p. once daily, day 22, TGI=ΔT/ΔC×100%): 22%
mice died [3, 5]: 1 out of 8

— US10632106B2, “Methods of cancer treatment with 2-(1′H-Indole-3′-carbonyl)-thiazole-4-carboxylic acid methyl ester” (Ariagen, Inc., priority 2009, dated 2020)
